Assay results reported in patent publication US10981932B2, “Macrocyclic indole derivatives” (Bayer Aktiengesellschaft, priority 2016, dated 2021).
Where two headings read alike, the source gives them in different places.

Experiments:
A2780 = test: Anti-proliferative effect (CellTiter-Glo, 72 h), A2780; format: cell-based; conditions: A2780 cells, median, read-out: IC50 antiproliferation assay A2780 [M] (median)
Outline: (§1)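 Cells were treated with compounds for 72 h at 37 °C in a humidified incubator, and viability was measured by CellTiter-Glo luminescence. A parallel day 0 plate, read the same way, gave the time zero baseline.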

SUDHL5 [1] = test: Induction of cytotoxicity (CellTiter-Glo, 5 h), SUDHL5
SUDHL10 [2] = test: Anti-proliferative effect (CellTiter-Glo, 72 h), SUDHL10; format: cell-based; conditions: SUDHL10 cells, antiproliferation, 72 h incubation, median, read-out: Antiproli SUDHL10 [M] (median)
Outline: as §1

SUDHL5 [3] = test: Induction of caspase-3/7 activity (Caspase-Glo 3/7), SUDHL5; format: cell-based; conditions: caspase-3/7 induction, SUDHL5 cells, 3 h treatment, median
Outline: (§2)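 DLBCL cells treated with compounds for 3 h at 37 °C, then caspase-3/7 activity read by Caspase-Glo 3/7 luminescence. Medium-only background subtracted; EC50 fitted with C0 fixed at 1 and top set to the reference compound's maximal induction.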

SUDHL10 [4] = test: Induction of caspase-3/7 activity (Caspase-Glo 3/7), SUDHL10; format: cell-based; conditions: caspase-3/7 induction, SUDHL10 cells, 3 h treatment, median
Outline: as §2

MCL-1 = MCL-1 (Homo sapiens, UniProt Q07820); test: Protein-protein interaction assay MCL-1/Noxa BH3 peptide (MCL-1 assay), TR-FRET; format: binding; conditions: MBP-MCL-1 / Noxa BH3-derived peptide, median
Outline: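 TR-FRET, 665/622 nm emission ratio (excitation 330–350 nm), measured MCL-1/Noxa complex formation. 1 nM MBP-MCL-1, 50 mM Tris/HCl pH 7, 0.1% BGG, 2 mM DTT. Incubation 1 h at 22 °C, then overnight at 4 °C. IC50 by 4-parameter regression, normalized to DMSO (0%) and no-MCL-1 (100%) controls.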

SUDHL10 [5] = test: Induction of cytotoxicity (CellTiter-Glo, 5 h), SUDHL10
Procedure: Therefore, cytotoxicity assays were run in parallel in SUDHL5 and SUDHL10 cells.
The different cell lines were plated in culture medium (RPMI 1640 [GIBCO #22400-089]supplemented with 10% Fetal Bovine Serum) at a density of 3.300 cells in 30 μl/well in a sterile, solid black, flat bottom, polystyrene, TC-treated 384-well microplate (Corning #3571) using Multidrop Combi Reagent Dispenser. As a control, medium without cells was also added to the plate. Cells were incubated in a humidified incubator at 37° C. overnight. On the next day, the cells were treated with compounds (stock solution, 10 mM in DMSO) using the HP D300 Digital Dispenser in a concentration range of 3.3×10e-5 M (33 μM) to 5×10e-9 M (5 nM) in a single-dot curve with at least 16 dilutions and a DMSO concentration of 0.33%. Rim wells were excluded. The cells were incubated for 5 h hours in a humidified incubator at 37° C. After this incubation, 30 μl of CellTiter-Glo@ Luminescent Cell Viability reagent (Promega, G7573) was added to each well using the Multidrop Combi Reagent Dispenser, followed by 15 min incubation on a shaker at room temperature. Finally, luminescence was read at 0.1 ms, with a gain of 3000 using the PHERAstar FS microplate reader (BMG Labtech).
The Bella DRC Master Sheet was used to calculate IC50s, with fixed CI=0 and C0=1.

OPM2 = test: Anti-proliferative effect (CellTiter-Glo, 72 h), OPM2; format: cell-based; conditions: OPM2 cells, median, read-out: IC50 antiproliferation assay OPM2 [M] (median)
Outline: as §1

SUDHL5 [6] = test: Anti-proliferative effect (CellTiter-Glo, 72 h), SUDHL5; format: cell-based; conditions: SUDHL5 cells, antiproliferation, 72 h incubation, median, read-out: Antiproli SUDHL5 [M] (median)
Outline: as §1

[7] = Homo sapiens, SU-DHL-5, 5 h, read-out: Cytotox SUDHL5 [M] (median), SUDHL5 cells, cytotoxicity induction, CellTiter-Glo, 5 h incubation, median
[8] = Homo sapiens, SU-DHL10, 5 h, read-out: Cytotox SUDHL10 [M] (median), SUDHL10 cells, cytotoxicity induction, CellTiter-Glo, 5 h incubation, median
[9] = read-out: Cytotox SUDHL10 [M] (median), SUDHL10 cells, cytotoxicity induction, CellTiter-Glo, 5 h incubation, median
[10] = read-out: Cytotox SUDHL5 [M] (median), SUDHL5 cells, cytotoxicity induction, CellTiter-Glo, 5 h incubation, median

Chain of MCL-1 (Q07820 whole entry): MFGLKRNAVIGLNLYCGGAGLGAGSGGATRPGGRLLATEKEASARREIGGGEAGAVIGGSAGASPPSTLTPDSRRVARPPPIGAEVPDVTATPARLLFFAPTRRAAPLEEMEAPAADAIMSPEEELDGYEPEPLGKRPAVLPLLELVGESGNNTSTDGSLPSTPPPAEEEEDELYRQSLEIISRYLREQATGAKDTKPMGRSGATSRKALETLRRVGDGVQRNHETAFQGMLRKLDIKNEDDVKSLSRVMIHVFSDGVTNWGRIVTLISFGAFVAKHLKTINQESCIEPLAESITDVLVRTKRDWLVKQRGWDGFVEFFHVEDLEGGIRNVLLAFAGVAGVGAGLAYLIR

CCN(CC)S(=O)(=O)N1CCN(c2ccc(OCc3nn(C)c4c3-c3cccc5c(CCCOc6cccc7ccccc67)c(C(=O)O)n(c35)CCCCOC4)cc2)CC1 (racemic) [Example 1-3, (rac)-3-({4-[4-(diethylsulfamoyl)piperazin-1-yl]phenoxy}methyl)-1-methyl-7-[3-(naphthalen-1-yloxy)propyl]-1,10,11,12,13,15-hexahydropyrazolo[4′,3′:9,10][1,6]oxazacycloundecino[8,7,6-hi]indole-8-carboxylic Acid]
IC50 (A2780; Homo sapiens, A2780, 72 h): 4.86e-06 M
IC50 (SUDHL5 [1]; [7]): 2.68e-06 M
IC50 (SUDHL10 [2]; Homo sapiens, SU-DHL10, 72 h): 1.9e-06 M
EC50 (SUDHL5 [3]; Homo sapiens, SU-DHL-5, 3 h): 2 µM
EC50 (SUDHL10 [4]; Homo sapiens, SU-DHL10, 3 h): 2.36 µM
IC50 (MCL-1): 0.00378 µM
IC50 (SUDHL10 [5]; [8]): 2.64e-06 M
IC50 (OPM2; Homo sapiens, OPM-2, 72 h): 2.11e-06 M
IC50 (SUDHL5 [6]; Homo sapiens, SU-DHL-5, 72 h): 1.27e-06 M

CN(C)S(=O)(=O)N1CCN(c2ccc(OCc3nn(C)c4c3-c3cccc5c(CCCOc6cccc7ccccc67)c(C(=O)O)n(c35)CCCCOC4)cc2)CC1 (racemic) [Example 1-18, (rac)-3-({4-[4-(dimethylsulfamoyl)piperazin-1-yl]phenoxy}methyl)-1-methyl-7-[3-(naphthalen-1-yloxy)propyl]-1,10,11,12,13,15-hexahydropyrazolo[4′,3′:9,10][1,6]oxazacycloundecino[8,7,6-hi]indole-8-carboxylic Acid]
IC50 (A2780; Homo sapiens, A2780, 72 h): 8.79e-06 M
IC50 (SUDHL5 [1]; [7]): 1.75e-06 M
IC50 (SUDHL10 [2]; Homo sapiens, SU-DHL10, 72 h): 1.33e-06 M
EC50 (SUDHL5 [3]; Homo sapiens, SU-DHL-5, 3 h): 1.22 µM
EC50 (SUDHL10 [4]; Homo sapiens, SU-DHL10, 3 h): 1.94 µM
IC50 (SUDHL10 [5]; [8]): 2.29e-06 M
IC50 (OPM2; Homo sapiens, OPM-2, 72 h): 1.57e-06 M
IC50 (SUDHL5 [6]; Homo sapiens, SU-DHL-5, 72 h): 9.33e-07 M

Cc1nn(C)c2c1-c1cccc3c(CCCOc4cccc5c4CCCC5)c(C(=O)O)n(c13)CCCCOC2 (racemic) [Example 006, (rac)-1,3-dimethyl-7-[3-(5,6,7,8-tetrahydronaphthalen-1-yloxy)propyl]-1,10,11,12,13,15-hexahydropyrazolo[4′,3′:9,10][1,6]oxazacycloundecino[8,7,6-hi]indole-8-carboxylic Acid]
IC50 (A2780): 2.49e-05 M
IC50 (A2780; Homo sapiens, A2780, 72 h): > 3.3e-05 M
IC50 (SUDHL5 [1]; [7]): 7.28e-06 M
IC50 (SUDHL10 [2]; Homo sapiens, SU-DHL10, 72 h): 4.99e-06 M
EC50 (SUDHL5 [3]; Homo sapiens, SU-DHL-5, 3 h): 6.95 µM
IC50 (MCL-1): 0.00831 µM
IC50 (SUDHL10 [5]; [8]): 1.99e-05 M
IC50 (SUDHL10 [5]; [9]): > 3.3e-05 M
IC50 (OPM2; Homo sapiens, OPM-2, 72 h): 1.9e-05 M
IC50 (OPM2): > 3.3e-05 M
IC50 (SUDHL5 [6]; Homo sapiens, SU-DHL-5, 72 h): 3.22e-06 M

Cc1cc(OCCCc2c(C(=O)O)n3c4c(cccc24)-c2c(COc4ccccc4)nn(C)c2CN(C)CCC3)cc(C)c1Cl (single isomer, unassigned) [Example 1-85, 1-[3-(4-chloro-3,5-dimethylphenoxy)propyl]-7,9-dimethyl-11-(phenoxymethyl)-4,5,6,7,8,9-hexahydropyrazolo[3′,4′:7,8][1,5]diazecino[9,10,1-hi]indole-2-carboxylic Acid]
IC50 (SUDHL5 [1]; [7]): > 3.3e-05 M
IC50 (SUDHL10 [2]; Homo sapiens, SU-DHL10, 72 h): 1.03e-05 M
EC50 (SUDHL5 [3]; Homo sapiens, SU-DHL-5, 3 h): > 33 µM
EC50 (SUDHL10 [4]; Homo sapiens, SU-DHL10, 3 h): > 33 µM
IC50 (MCL-1): 0.262 µM
IC50 (SUDHL10 [5]; [8]): > 3.3e-05 M
IC50 (OPM2; Homo sapiens, OPM-2, 72 h): > 3.3e-05 M
IC50 (SUDHL5 [6]; Homo sapiens, SU-DHL-5, 72 h): 2.5e-05 M

Cc1cc(OCCCc2c(C(=O)O)n3c4c(cccc24)-c2c(COc4ccccc4)nn(C)c2CN(C)CCC3)cc(C)c1Cl (single isomer, unassigned) [Example 1-86, 1-[3-(4-chloro-3,5-dimethylphenoxy)propyl]-7,9-dimethyl-1-(phenoxymethyl)-4,5,6,7,8,9-hexahydropyrazolo[3′,4′:7,8][1,5]diazecino[9,10,1-hi]indole-2-carboxylic Acid]
IC50 (SUDHL5 [1]; [10]): > 3.3e-05 M
IC50 (SUDHL10 [2]): 9.45e-06 M
EC50 (SUDHL5 [3]): > 33 µM
EC50 (SUDHL10 [4]): > 33 µM
IC50 (MCL-1): 0.278 µM
IC50 (SUDHL10 [5]; [9]): > 3.3e-05 M
IC50 (OPM2): 2.43e-05 M
IC50 (SUDHL5 [6]): 1.96e-05 M

CN1CCCn2c(C(=O)O)c(CCCOc3cccc4ccccc34)c3cccc(c32)-c2c(COc3ccc(-n4ccccc4=O)cc3)nn(C)c2C1 (single isomer, unassigned; enantiomer 1) [Example 1-115, 7,9-Dimethyl-1-[3-(1-naphthyloxy)propyl]-1-{[4-(2-oxopyridin-1(2H)-yl)phenoxy]methyl}-4,5,6,7,8,9-hexahydropyrazolo[3′,4′:7,8][1,5]diazecino[9,10,1-hi]indole-2-carboxylic Acid (Enantiomer 1)]
IC50 (SUDHL5 [1]; [10]): > 3.3e-05 M
IC50 (SUDHL10 [2]; Homo sapiens, SU-DHL10, 72 h): 1.24e-05 M
EC50 (SUDHL5 [3]; Homo sapiens, SU-DHL-5, 3 h): > 33 µM
EC50 (SUDHL10 [4]; Homo sapiens, SU-DHL10, 3 h): 32.9 µM
IC50 (MCL-1): 0.0479 µM
IC50 (SUDHL10 [5]; [8]): > 3.3e-05 M
IC50 (OPM2; Homo sapiens, OPM-2, 72 h): > 3.3e-05 M
IC50 (SUDHL5 [6]): 2.13e-05 M

CN1CCCn2c(C(=O)O)c(CCCOc3cccc4ccccc34)c3cccc(c32)-c2c(COc3ccc(N4CCN(S(=O)(=O)N(C)C)CC4)cc3)nn(C)c2C1 (single isomer, unassigned; enantiomer 2) [Example 1-16, 11-({4-[4-(dimethylsulfamoyl)piperazin-1-yl]phenoxy}methyl)-7,9-dimethyl-1-[3-(naphthalen-1-yloxy)propyl]-4,5,6,7,8,9-hexahydropyrazolo[3′,4′:7,8][1,5]diazecino[9,10,1-hi]indole-2-carboxylic Acid (Enantiomer 2)]
IC50 (SUDHL5 [1]; [10]): > 3.3e-05 M
IC50 (SUDHL10 [2]): 5.63e-06 M
EC50 (SUDHL5 [3]): > 33 µM
EC50 (SUDHL10 [4]): > 33 µM
IC50 (MCL-1): 0.0848 µM
IC50 (SUDHL10 [5]; [9]): > 3.3e-05 M
IC50 (OPM2): 1.15e-05 M
IC50 (SUDHL5 [6]): 8.21e-06 M

CN1CCCn2c(C(=O)O)c(CCCOc3cccc4ccccc34)c3cccc(c32)-c2c(CN3CCOCC3)nn(C)c2C1 (single isomer, unassigned; enantiomer 2) [Example 1-44, (−)-7,9-dimethyl-11-(morpholin-4-ylmethyl)-1-[3-(naphthalen-1-yloxy)propyl]-4,5,6,7,8,9-hexahydropyrazolo[3′,4′:7,8][1,5]diazecino[9,10,1-hi]indole-2-carboxylic Acid (Enantiomer 2)]
IC50 (A2780): 1.95e-05 M
IC50 (SUDHL5 [1]; [10]): 1.26e-05 M
IC50 (SUDHL10 [2]): 7.73e-06 M
EC50 (SUDHL5 [3]): 12.4 µM
EC50 (SUDHL10 [4]): 9.76 µM
IC50 (MCL-1): 0.0177 µM
IC50 (OPM2): 1.13e-05 M
IC50 (SUDHL5 [6]): 6.96e-06 M

Cc1nn(C)c2c1-c1cccc3c(CCCOc4cccc5ccccc45)c(C(=O)O)n(c13)CCCCN2Cc1ccccc1 [Example 002, (rac)-8-benzyl-9,11-dimethyl-1-[3-(1-naphthyloxy)propyl]-4,5,6,7,8,9-hexahydropyrazolo[4′,3′:4,5][1,6]diazecino[3,2,1-hi]indole-2-carboxylic Acid]
IC50 (SUDHL5 [1]; [7]): 2.12e-05 M
IC50 (SUDHL10 [2]; Homo sapiens, SU-DHL10, 72 h): 6.26e-06 M
EC50 (SUDHL5 [3]; Homo sapiens, SU-DHL-5, 3 h): > 33 µM
EC50 (SUDHL10 [4]; Homo sapiens, SU-DHL10, 3 h): 22.4 µM
IC50 (MCL-1): 0.353 µM
IC50 (SUDHL10 [5]; [8]): 3.18e-05 M
IC50 (OPM2; Homo sapiens, OPM-2, 72 h): > 3.3e-05 M
IC50 (SUDHL5 [6]; Homo sapiens, SU-DHL-5, 72 h): 1.42e-05 M

Cc1nn(C)c2c1-c1cccc3c(CCCOc4cccc5ccccc45)c(C(=O)O)n(c13)CCCCN2 [Example 003, (rac)-9,11-dimethyl-1-[3-(1-naphthyloxy)propyl]-4,5,6,7,8,9-hexahydropyrazolo[4′,3′:4,5][1,6]diazecino[3,2,1-hi]indole-2-carboxylic Acid]
IC50 (SUDHL5 [1]; [7]): > 3.3e-05 M
IC50 (SUDHL10 [2]; Homo sapiens, SU-DHL10, 72 h): 1.54e-05 M
EC50 (SUDHL5 [3]; Homo sapiens, SU-DHL-5, 3 h): > 33 µM
EC50 (SUDHL10 [4]; Homo sapiens, SU-DHL10, 3 h): 29.1 µM
IC50 (MCL-1): 0.0433 µM
IC50 (SUDHL10 [5]; [8]): > 3.3e-05 M
IC50 (OPM2; Homo sapiens, OPM-2, 72 h): > 3.3e-05 M
IC50 (SUDHL5 [6]; Homo sapiens, SU-DHL-5, 72 h): > 3.3e-05 M
